Data reported in patent US8349824B2, “Triazolopyridine compounds” (Hoffmann-La Roche Inc., priority 2010, dated 2013).

How the values were obtained:
human PDE10A full length = molecular target: T1, human PDE10A full length (Homo sapiens, UniProt Q9Y233); experiment: PDE10A Scintillation Proximity Assay (SPA), human PDE10A full length assay; format: biochemical; settings: 50 nM cGMP + 50 nM [3H]-cGMP, 20 minutes at room temperature, read-out: PDE10A inhibition IC50
T1 construct: purchased Enzo Life Science, Lausen, Switzerland SE-534
Outline: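 SPA format with full-length enzyme in 20 mM HEPES pH 7.5, 10 mM MgCl2, 0.05 mg/ml BSA, substrate 50 nM cGMP plus 50 nM [3H]-cGMP. Reaction started with substrate, run 20 min at room temperature, stopped with YSi-SPA beads in zinc sulphate. IC50 from scintillation counts over an inhibitor concentration range.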

T1 sequence (Q9Y233 1-779 isoform Q9Y233-1): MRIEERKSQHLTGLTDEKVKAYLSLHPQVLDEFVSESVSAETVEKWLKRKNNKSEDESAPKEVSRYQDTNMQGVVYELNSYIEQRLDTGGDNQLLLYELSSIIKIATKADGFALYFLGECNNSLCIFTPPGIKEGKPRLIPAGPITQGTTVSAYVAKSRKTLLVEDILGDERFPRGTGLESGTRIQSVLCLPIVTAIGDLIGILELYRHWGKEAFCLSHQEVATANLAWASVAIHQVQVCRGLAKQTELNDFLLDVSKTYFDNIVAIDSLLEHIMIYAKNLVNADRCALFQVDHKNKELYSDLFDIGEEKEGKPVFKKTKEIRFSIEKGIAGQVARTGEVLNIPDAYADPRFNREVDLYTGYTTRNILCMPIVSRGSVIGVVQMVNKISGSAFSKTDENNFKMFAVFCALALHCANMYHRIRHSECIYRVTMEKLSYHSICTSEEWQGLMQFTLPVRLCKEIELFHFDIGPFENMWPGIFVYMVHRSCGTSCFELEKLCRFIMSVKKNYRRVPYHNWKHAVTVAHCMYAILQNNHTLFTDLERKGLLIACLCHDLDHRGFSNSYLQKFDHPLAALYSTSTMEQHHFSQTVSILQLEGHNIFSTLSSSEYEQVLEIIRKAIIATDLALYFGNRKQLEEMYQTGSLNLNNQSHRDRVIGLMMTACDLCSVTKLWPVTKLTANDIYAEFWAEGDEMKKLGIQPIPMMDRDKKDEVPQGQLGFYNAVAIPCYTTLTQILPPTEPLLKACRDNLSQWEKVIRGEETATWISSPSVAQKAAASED

Structure (SMILES)	IC50 (human PDE10A full length)	melting point
Cn1ncc(C(=O)N2CCCC2)c1C(=O)Nc1cc2nc(-c3ccccc3)nn2cc1F [Example 31, N-(6-fluoro-2-phenyl-[1,2,4]triazolo[1,5-a]pyridin-7-yl)-1-methyl-4-(pyrrolidine-1-carbonyl)-1H-pyrazole-5-carboxamide]	0.48 nM	250 to 251 °C
Cn1ncc(C(=O)N2CCOCC2)c1C(=O)Nc1cc2nc(-c3ccccc3)nn2cc1F [Example 32, 2-Methyl-4-(morpholine-4-carbonyl)-2H-pyrazole-3-carboxylic acid (6-fluoro-2-phenyl-[1,2,4]triazolo[1,5-a]pyridin-7-yl)-amide]	0.98 nM	224 to 225 °C
CC(C)c1nc2cc(NC(=O)c3c(C(=O)N4CCCC4)cnn3C)ccn2n1 [Example 34, N-(2-isopropyl-[1,2,4]triazolo[1,5-a]pyridin-7-yl)-1-methyl-4-(pyrrolidine-1-carbonyl)-1H-pyrazole-5-carboxamide]	28.3 nM	141 to 143 °C
CN(C)c1nc2cc(NC(=O)c3c(C(=O)N4CCC4)cnn3C)ccn2n1 [Example 35, 4-(Azetidine-1-carbonyl)-N-(2-(dimethylamino)-[1,2,4]triazolo[1,5-a]pyridin-7-yl)-1-methyl-1H-pyrazole-5-carboxamide]	7.39 nM	240 to 241 °C
CN(C)c1nc2cc(NC(=O)c3c(C(=O)N4CCOCC4)cnn3C)ccn2n1 [Example 36, N-(2-(dimethylamino)-[1,2,4]triazolo[1,5-a]pyridin-7-yl)-1-methyl-4-(morpholine-4-carbonyl)-1H-pyrazole-5-carboxamide]	43.5 nM	196 to 198 °C
CN(C)c1nc2cc(NC(=O)c3c(C(=O)N4CCCC4)cnn3C)ccn2n1 [Example 37, N-(2-(dimethylamino)-[1,2,4]triazolo[1,5-a]pyridin-7-yl)-1-methyl-4-(pyrrolidine-1-carbonyl)-1H-pyrazole-5-carboxamide]	4.46 nM	199 to 201 °C
CN(C)c1nc2cc(NC(=O)c3c(C(=O)N4CC(F)C4)cnn3C)ccn2n1 [Example 38, N-(2-(dimethylamino)-[1,2,4]triazolo[1,5-a]pyridin-7-yl)-4-(3-fluoroazetidine-1-carbonyl)-1-methyl-1H-pyrazole-5-carboxamide]	19.6 nM	243 to 244 °C
CCN(CC)C(=O)c1cnn(C)c1C(=O)Nc1ccn2nc(N3CCOCC3)nc2c1 [Example 39, N4,N4-diethyl-1-methyl-N5-(2-morpholino-[1,2,4]triazolo[1,5-a]pyridin-7-yl)-1H-pyrazole-4,5-dicarboxamide]	22.4 nM	165 to 167 °C
CN(C)C(=O)c1cnn(C)c1C(=O)Nc1ccn2nc(N3CCOCC3)nc2c1 [Example 40, N4,N4,1-trimethyl-N5-(2-morpholino-[1,2,4]triazolo[1,5-a]pyridin-7-yl)-1H-pyrazole-4,5-dicarboxamide]	7.14 nM	237 to 240 °C
CCN(C)C(=O)c1cnn(C)c1C(=O)Nc1ccn2nc(N3CCOCC3)nc2c1 [Example 41, N4-ethyl-N4,1-dimethyl-N5-(2-morpholino-[1,2,4]triazolo[1,5-a]pyridin-7-yl)-1H-pyrazole-4,5-dicarboxamide]	6.68 nM	201 to 203 °C
Cn1ncc(C(=O)N2CCC2)c1C(=O)Nc1ccn2nc(-c3cccnc3)nc2c1 [Example 44, 4-(Azetidine-1-carbonyl)-1-methyl-N-(2-(pyridin-3-yl)-[1,2,4]triazolo[1,5-a]pyridin-7-yl)-1H-pyrazole-5-carboxamide]	5.79 nM	253 to 254 °C
Cn1ncc(C(=O)N2CCOCC2)c1C(=O)Nc1ccn2nc(-c3cccnc3)nc2c1 [Example 45, 1-Methyl-4-(morpholine-4-carbonyl)-N-(2-(pyridin-3-yl)-[1,2,4]triazolo[1,5-a]pyridin-7-yl)-1H-pyrazole-5-carboxamide]	4.29 nM	218 to 220 °C
Cn1ncc(C(=O)N2CCCC2)c1C(=O)Nc1ccn2nc(-c3cccnc3)nc2c1 [Example 46, 1-Methyl-N-(2-(pyridin-3-yl)-[1,2,4]triazolo[1,5-a]pyridin-7-yl)-4-(pyrrolidine-1-carbonyl)-1H-pyrazole-5-carboxamide]	1.17 nM	226 to 228 °C
Cn1ncc(C(=O)N2CC(F)C2)c1C(=O)Nc1ccn2nc(-c3cccnc3)nc2c1 [Example 47, 4-(3-Fluoroazetidine-1-carbonyl)-1-methyl-N-(2-(pyridin-3-yl)-[1,2,4]triazolo[1,5-a]pyridin-7-yl)-1H-pyrazole-5-carboxamide]	1.24 nM	247 to 249 °C

The remaining lines, values ahead:

IC50 (human PDE10A full length)	melting point	Structure (SMILES)
0.98 nM	156 to 157 °C	CN(C(=O)c1cnn(C)c1C(=O)Nc1ccn2nc(-c3ccccc3)nc2c1)C1CC1 [Example 48, 2-Methyl-2H-pyrazole-3,4-dicarboxylic acid 4-(cyclopropyl-methyl-amide)3-[(2-phenyl-[1,2,4]triazolo[1,5-a]pyridin-7-yl)-amide]]
0.84 nM	> 250 °C	CN(CC(F)(F)F)C(=O)c1cnn(C)c1C(=O)Nc1ccn2nc(-c3ccccc3)nc2c1 [Example 49, 2-Methyl-2H-pyrazole-3,4-dicarboxylic acid 4-[methyl-(2,2,2-trifluoro-ethyl)-amide]3-[(2-phenyl-[1,2,4]triazolo[1,5-a]pyridin-7-yl)-amide]]
47.3 nM	226 to 227 °C	CC(C)c1nc2cc(NC(=O)c3c(C(=O)N4CCC4)cnn3C)ccn2n1 [Example 50, 4-(Azetidine-1-carbonyl)-2-methyl-2H-pyrazole-3-carboxylic acid (2-isopropyl-[1,2,4]triazolo[1,5-a]pyridin-7-yl)-amide]
42 nM	226 to 227 °C	CC(C)c1nc2cc(NC(=O)c3c(C(=O)N4CC(F)C4)cnn3C)ccn2n1 [Example 51, 4-(3-Fluoro-azetidine-1-carbonyl)-2-methyl-2H-pyrazole-3-carboxylic acid (2-isopropyl-[1,2,4]triazolo[1,5-a]pyridin-7-yl)-amide]
57.4 nM	222 to 224 °C	CN(C(=O)c1cnn(C)c1C(=O)Nc1ccn2nc(N3CCOCC3)nc2c1)C1CCCC1 [Example 52, N4-cyclopentyl-N4,1-dimethyl-N5-(2-morpholino-[1,2,4]triazolo[1,5-a]pyridin-7-yl)-1H-pyrazole-4,5-dicarboxamide]
3.69 nM	200 to 208 °C	CN(CCF)C(=O)c1cnn(C)c1C(=O)Nc1ccn2nc(-c3cccnc3)nc2c1 [Example 56, 2-Methyl-2H-pyrazole-3,4-dicarboxylic acid 4-[(2-fluoro-ethyl)-methyl-amide]3-[(2-pyridin-3-yl-[1,2,4]triazolo[1,5-a]pyridin-7-yl)-amide]]
7.03 nM	229 to 232 °C	CCN(C)c1nc2cc(NC(=O)c3c(C(=O)N4CCC4)cnn3C)ccn2n1 [Example 58, 4-(Azetidine-1-carbonyl)-2-methyl-2H-pyrazole-3-carboxylic acid [2-(ethyl-methyl-amino)-[1,2,4]triazolo[1,5-a]pyridin-7-yl]-amide]
